According to US20030104473A1, “Common ligand mimics: benzimidazoles” (priority 2001, published 2003):
Where two headings read alike, the source gives them in different places.

Experiments:
Type in all cases: biochemical
[1] = biological target: dihydrodipicolinate reductase (DHPR) (Escherichia coli, UniProt P04036); assay: DHPR kinetic assay, spectrophotometric oxidation of NADPH at 340 nm
Procedure: For DHPR analysis, the compounds were screened using a kinetic protocol that spectrophotometrically evaluates oxidation of NADPH.
Stock solutions of each of the reagents were prepared in the following concentrations. Dilutions of the stock solutions were prepared prior to running the assay in the concentrations indicated below. DHPR was diluted in 10 mM HEPES at a pH of 7.4. DHPS (dihydrodipicolinate synthase) was not diluted and was stored in eppindorf tubes.
The L-ASA (L-aspartate semialdehyde) solution was prepared in the following manner. […] stock solution of ASA was prepared. 100 μl of the ASA stock solution was mixed with 150 μl of concentrated NaHCO3 and 375 μl of H2O. For use in the assay, 28.8 mM L-ASA was equal to 625 μl of the solution. The L-ASA stock Aft solution was kept at a temperature of −20° C. After dilution, the pH of the 28.8 mM solution was checked and maintained between 1 and 2.
The DHPS reaction was monitored at 340 nm prior to and after addition of the inhibitor to detect background reaction with the inhibitor. The solution for background detection was a 945 μl solution containing 0.1 HEPES (pH 7.8), 1 mM pyruvate, 6 μM NADPH, 40 μM L-ASA, and 7 μl of 1 mg/ml DHPS at 25° C. in the volumes provided above. The sample solution was then mixed and incubated for 10 minutes. Next, 500 nM solutions of the inhibitors and enough DMSO to provide a final DMSO concentration of 5% of the total assay volume were added. The solution was mixed and incubated for an additional 6 minutes.
In DHPR samples, 5 μl of the diluted DHPR enzyme were added. The sample was mixed for 20 seconds and then the reaction was run for 10 minutes. After a 50 second lag, the samples were read in a Cary spectrophotometer at 340 nm. Reading of the samples was continued until 300 seconds. Cuvette #1 contained the control reaction (no inhibitor), and cuvette #2 contained the positive control reaction in which Cibacron Blue at 2.58 μM was substituted for inhibitor to yield 70 to 80% inhibition. The substrate was kept at a level at least 10 times the Km. The final concentration of L-ASA was about 1 mM.

[2] = biological target: Human Aldose Reductase (AR) (Homo sapiens, UniProt P15121); assay: AR kinetic assay, spectrophotometric measurement of enzyme activity at 340 nm; conditions: Example 13 oxidoreductase panel (FIG. 7)
Procedure: For AR analysis, the compounds were screened using a kinetic protocol that spectrophotometrically measures enzyme activity.
(§1) Stock solutions of each of the reagents were prepared in the following concentrations. Dilutions of the stock solutions were prepared prior to running the assay in the concentrations indicated below.
The AR reaction was monitored at 340 nm prior to and after addition of the inhibitor to detect background reaction with the inhibitor. Solutions of 100 μl of the inhibitors in DMSO were prepared to provide a final DMSO concentration of 5% of the total assay volume. These solutions were incubated for 5 minutes at 25° C. in a 990 μl of a solution containing 100 mM potassium phosphate, pH 7.5, 0.3 M ammonium sulfate, 1.0 mM ethylenediaminetetraacetic acid (EDTA), 3.8 μM B-Nicotinamide adenine dinucleotide phosphate (NADPH), 171 μM DL-glyceraldehyde and 0.1 mM DL-dithiothreitol. The reaction was then initiated with 10 μl of Human Aldose Reductase (1:5 dilution of 0.55 mg/ml). After the enzyme was added, the solution was mixed for 20 seconds, and the reaction was run for 10 minutes. After a 50 second lag, the samples were read in a Cary spectrophotometer at 340 nm. Reading of the samples was continued until 300 seconds. The final DMSO concentration in the cuvette was 5%. […]

[3] = biological target: inosine-5′-monophosphate dehydrogenase (IMPDH); assay: IMPDH kinetic assay, spectrophotometric reduction of NAD+ at 340 nm; conditions: Example 13 oxidoreductase panel (FIG. 7)
Procedure: For IMPDH analysis, the compounds were screened using a kinetic protocol that spectrophotometrically evaluates reduction of NAD+.
as §1
The IMPDH reaction was monitored at 340 nm prior to and after addition of the inhibitor to detect background reaction with the inhibitor. Solutions of 100 μl of the inhibitors in DMSO were prepared to provide a final DMSO concentration of 5% of the total assay volume. These solutions were incubated for 6 minutes at 37° C. in a 992 μl of a solution containing 0.1 M Tris-HCl, pH 8.0, 0.25 M KCl, 0.3% glycerol, 30 μM NAD+, and 600 μM IMP (inosine monophosphate). The reaction was then initiated with 8 μl of IMPDH (0.75 μg/ml). After the enzyme was added, the solution was mixed for 20 seconds, and the reaction was run for 10 minutes. After a 50 second lag, the samples were read in a Cary spectrophotometer at 340 nm. Reading of the samples was continued until 300 seconds. Cuvette #1 contained the control reaction (no inhibitor), and cuvette #2 contained the positive control reaction in which Cibacron Blue was substituted for inhibitor. The substrate was kept at a level at least 10 times the Km.

[4] = biological target: dihydrofolate reductase (DHFR) (UniProt P00374); assay: DHFR kinetic assay, spectrophotometric oxidation of NADH at 340 nm
Chain of dihydrofolate reductase (DHFR) (P00374 whole entry): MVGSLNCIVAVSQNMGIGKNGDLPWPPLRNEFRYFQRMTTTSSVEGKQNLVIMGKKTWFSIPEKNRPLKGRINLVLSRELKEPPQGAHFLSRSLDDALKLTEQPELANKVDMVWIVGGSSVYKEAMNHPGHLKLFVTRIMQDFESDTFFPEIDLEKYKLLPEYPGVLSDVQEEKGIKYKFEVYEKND
Procedure: For DHFR analysis, the compounds were screened using a kinetic protocol that spectrophotometrically evaluates oxidation of NADH.
Stock solutions of each of the reagents were prepared in the following concentrations. Dilutions of the stock solutions were prepared prior to running the assay in the concentrations indicated below. H2 folate was dissolved in DMSO to about 10 mM and then diluted with water to a concentration of 0.1 mM.
The DHFR reaction was monitored at 340 nm prior to and after addition of the inhibitor to detect background reaction with the inhibitor. Solutions of 100 μl of the inhibitors in DMSO were prepared to provide a final DMSO concentration of 5% of the total assay volume. These solutions were incubated for 6 minutes at 25° C. in a 992 μl of a solution containing 0.1 M Tris-HCl, pH 7.0, 150 mM KCl, 5 μM H2 folate, and 52 μM NADH. The oxidation reaction was then initiated with 8 μl of DHFR (0.047 mg/ml). After the enzyme was added, the solution was mixed for 20 seconds, and the reaction was run for 10 minutes. After a 50 second lag, the samples were read in a Cary spectrophotometer at 340 nm. Reading of the samples was continued until 300 seconds. Cuvette #1 always contained the control reaction (no inhibitor), and cuvette #2 always contained the positive control reaction in which Cibacron Blue at 3 μM was substituted for inhibitor to yield 50 to 70% inhibition. […]

Chain of dihydrodipicolinate reductase (DHPR) (P04036 whole entry): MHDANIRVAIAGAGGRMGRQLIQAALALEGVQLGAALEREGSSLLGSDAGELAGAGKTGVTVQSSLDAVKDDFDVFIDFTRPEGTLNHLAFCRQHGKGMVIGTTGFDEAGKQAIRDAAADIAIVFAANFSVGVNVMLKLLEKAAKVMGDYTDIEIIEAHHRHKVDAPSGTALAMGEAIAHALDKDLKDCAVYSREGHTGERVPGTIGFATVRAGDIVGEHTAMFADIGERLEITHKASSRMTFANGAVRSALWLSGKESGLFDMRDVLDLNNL

SMILES | IC50 ([1]; Example 13 oxidoreductase panel (FIG. 7), read-out: IC50 for DHPR) | IC50 ([1]; Example 14, common ligand mimics (FIG. 8), read-out: IC50 for DHPR) | IC50 [2] | IC50 [3] | IC50 ([4]; Example 13 oxidoreductase panel (FIG. 7); read-out: IC50 for DHFR) | IC50 ([1]; IC50 for DHPR, Example 13 oxidoreductase panel (FIG. 7)) | IC50 ([1]; IC50 for DHPR, Example 14, common ligand mimics (FIG. 8)) | IC50 ([4]; read-out: IC50 for DHFR; Example 13 oxidoreductase panel (FIG. 7))
O=C(O)c1ccc(-c2ccc(-c3nc4ccccc4[nH]3)o2)cc1 [compound 6b, 4-[5-(1H-benzoimidazol-2-yl)-furan-2-yl] benzoic acid] | > 48 µM | 32.6 µM | 35 µM | 22 µM | > 40 µM |  |  | 
O=C(O)c1ccc(-c2ccc(-c3nc4cc([N+](=O)[O-])ccc4[nH]3)o2)cc1 [compound 6d, 4-[5-(5-nitro-1H-benzoimidazol-2-yl)-furan-2-yl]-benzoic acid] |  |  |  | 15.8 µM |  | > 75 µM | > 75 µM | 48.5 µM
